Results: publication PMC9666555, “Genuine selective caspase-2 inhibition with new irreversible small peptidomimetics” (Cell Death & Disease, 2022)
Non-standard residues stand in square brackets, D forms with d. Residues, ends and D or L forms follow the SMILES beside them. ξ: configuration not given here. *: point of attachment. ξTHIQ1CO(6-Me) = Cc1ccc2c(c1)CCNC2C(=O)O; X1 = O=C(O)CC(N*)C(=O)COc1c(F)cccc1F; Quinaldoyl = O=C(c1ccc2ccccc2n1)*

Legend:
[1] = test system: Molt4 lymphoid human cells; experiment: Panobistat (LBH589)-induced cell death in Molt4 cells (propidium iodide, flow cytometry); assay type: cell-based; details: Molt4, 1 h pretreatment (30 µM or indicated doses), 25 nM LBH589 24 h
Protocol: HeLa cells (obtained from ATCC) were cultured in Dulbecco’s Modified Eagle Medium (DMEM, High Glucose, GlutaMAX™, Pyruvate) supplemented with antibiotics and 10% fetal calf serum (FCS) (Gibco, Life Technologies) and maintained in T75 Flasks at 1 × 10^6 cells per flask. Twenty-four hours before treatments, HeLa cells were transferred to 6-well plates (8 × 10^4 cells/well). The lymphoblastoid cell line Molt4cl8 was a gift from Dr. Bernard Krust (Inserm, University Paris 5) and was cultured in RPMI 1640 Glutamax medium supplemented with Hepes, antibiotics, and 10% FCS. HEK293 cells were obtained from ATCC (CRL-1573) and cultured in DMEM with Glutamax and 25 mM glucose (Life Technologies) supplemented with 10% FCS and antibiotics. For cell death induction, the following agents were added to cell cultures: Vincristine (Sigma) and Panobistat (LBH589; Selleck). Cell death was analyzed using fluorescence microscopy (Axio-observer Z1, Zeiss; equipped with CCD camera CoolsnapHQ2, Ropert Scientific) and cytofluorometry (MACSQuant® VYB; Miltenyi Biotec, Bergisch Gladbach, Germany) after labeling with propidium iodide (1 µg/mL; 10 min; 37 °C; Life Technologies) and Hoechst 33342 (1 µg/mL; 5 min; RT; Sigma).
Fig. 5 LJ2 inhibits cell death induced by microtubule destabilization and hydroxamic acid-based deacetylase (HDAC) inhibition. a Effect of the irreversible Caspase-2 inhibitors LJ2 against vincristine-induced cell death. HeLa cells were pretreated for 1 h with the indicated doses of LJ2, Q-VD-OPh, or Q-LETD-OPh, then treated with vincristine (VCR) as in Fig. 2, then incubated with propidium iodide at 2 μg/mL for 10 min and analyzed by flow cytometry. […] Molt4 lymphoid human cells where were pretreated for 1 h with 30 µM of LJ2, Q-VD-OPh, or Belnacasan (VX-765), then treated for 24 h with 25 nM of LBH589, then incubated with propidium iodide as in (a) and analyzed by flow cytometry. […] Molt4 cells were treated as in (b) with the indicated doses of LJ2 or Q-VD-OPh and analyzed by flow cytometry. […]

[2] = test system: Casp2-mediated Mdm-2 cleavage in H9 hESC-derived NPCs; experiment: Reversine-induced Mdm-2 cleavage in neural progenitor cells (WB); assay type: cell-based, human; details: 1 µM reversine 24 h
Protocol: The H9 human embryonic stem cell (hESC) line (WA09, WiCell) was maintained on mouse embryonic fibroblasts (MTI-GlobalStem) feeder culture in HUESM medium (20% KSR in KO-DMEM, 1% MEM-NEAA, 1% Pen–Strep, 0.1 mM 2 mercaptoethanol (Life technologies) 10 ng ml^−1 FGF2 (Biotechne), and differentiated into NPCs as previously described [Supplementary ref. 10] [Supplementary ref. 11]. In brief, hESC colonies were lifted with collagenase IV (1 mg ml^−1 in DMEM) at 37 °C for 1–2 h. Colonies lifted from the plate were transferred to a non-adherent plate (Corning) to generate embryoid bodies (EBs) for 1 day in N2/B27 medium (DMEM/F12-GlutaMAX, 1× N2 supplement, 1× B27 no RA supplement; Life). EBs were cultured in suspension in N2/B27 medium with dual-SMAD inhibitors (0.1 µM LDN193189 and 10 µM SB431542) for 7 days. […]
H9-hNPCs were pretreated (or not) for 1 h with LJ3a and treated with 1 µM reversine (#10004412, Cayman Chemicals, Ann Arbor, MI) for 24 h. […] After the BCA assay for protein quantification, samples were subject to polyacrylamide gel electrophoresis-sodium dodecyl sulfate analysis (60 min, 200 V, 12% bis–tris 12-well gels), followed by transfer to nitrocellulose membrane (60 min, 30 V). […] Protein bands were quantified using Image Studio Lite Quantification software (LI-COR®, Lincoln, NE). […]
recorded on the LJ3a sample. […]

Row | Compound | effect against Panobistat (LBH589)-induced cell death [1] | effect on reversine-induced Mdm-2 cleavage ([2]; 10 µM) | effect on reversine-induced Mdm-2 cleavage ([2]; submicromolar concentrations)
1 | Cc1ccc2c(c1)CCN(C(=O)[C@@H](NC(=O)[C@H](CC(=O)O)NC(=O)[C@@H](NC(=O)c1ccc3ccccc3n1)C(C)C)C(C)C)C2C(=O)NC(CC(=O)O)C(=O)COc1c(F)cccc1F (stereo partly drawn) [LJ2, Quinolin-2-carbonyl-VDV-(methyl-isoquinolyl)-D-CH2-O(2,6F2)Ph] (Quinaldoyl-VDV[ξTHIQ1CO(6-Me)]-X1) | dose-dependent inhibition of cell death | – | –
2 | CC(C)[C@H](NC(=O)c1ccc2ccccc2n1)C(=O)N[C@@H](CC(=O)O)C(=O)N[C@H](C(=O)N1CC[C@H](CC(C)(C)C)[C@@H]1C(=O)NC(CC(=O)O)C(=O)COc1c(F)cccc1F)C(C)C (stereo partly drawn) [LJ3a] | – | completely abolished | significantly prevented
